pIC50: −log10 of the molar value.
Tested on: HeLa
Assay: Cytotoxicity against human HeLa cells
Type: functional, cell-based

Compound	pIC50
CCCCCCCCC/C=C/C(=O)CCCCOC[C@@H](O)CO [CERATODICTYOL B]	4.17
CCCCCCCCCCC(=O)/C=C/CCCOC[C@@H](O)CO [CERATODICTYOL A]	4.17

Reference: ChEMBL document CHEMBL1154222, “Ceratodictyols, 1-glyceryl ethers from the red alga-sponge association Ceratodictyon spongiosum/Haliclona cymaeformis” (J Nat Prod, 2009)
